Reference: patent US20240294543A1, “CYCLOHEPTA-THIENO-DIAZEPINE DERIVATIVES AS GABA A GAMMA1 PAM” (Hoffmann-La Roche Inc., priority 2021, published 2024)
Like-named read-outs stand apart in the source and are kept apart here.

Assays:
[1] = target: human GABAA α2β2γ1 receptor (Homo sapiens (Human), UniProt P47869+Q8N1C3); assay: Radioligand binding assay, competition for [3H]RO7239181, γ1-containing GABAA subtypes
Procedure: The affinity of compounds at GABAA γ1 subunit-containing receptors was measured by competition for [^3H]RO7239181 (67.3 Ci/mmol; Roche) binding to membranes from HEK293F cells (ThermoFisher R79007) expressing human (transiently transfected) receptors of composition α5β2γ1, α2β2γ1, α1β2γ1.
Harvested pellets from HEK293F cells expressing the different GABAA receptor subtypes were resuspended in Mannitol Buffer pH 7.2-7.4 (Mannitol 0.29 M, Triethylamine 10 mM, Acetic acid 10 mM, EDTA 1 mM plus protease inhibitors (20 tablets Complete, Roche Diagnostics Cat. No. 05 056 489 001 per liter)), washed two times and then resuspended at 1:10 to 1:15 dilution in the same buffer. Cell disruption was performed by stirring the suspension in a Parr vessel #4637 at 435 psi for 15 minutes, and then the suspensions were centrifuged at 1000×g for 15 minutes at 4° C. (Beckman Avanti J-HC; rotor JS-4.2). The supernatant (S1) was transferred in a 21 Schott flask and the pellet (P1) was resuspended with Mannitol Buffer up to 175 ml. The resuspended pellet was transferred into a 250 ml Corning centrifugal beaker and centrifuged at 1500×g for 10 minutes at 4° C. (Beckman Avanti J-HC; rotor JS-4.2). The supernatant (S1) was then transferred in the 21 Schott flask and the pellet was discarded. The supernatants (S1) were centrifuged in 500 ml Beckman polypropylene centrifugal beaker at 15'000×g for 30 minutes at 4° C. (Beckman Avanti J-20 XP; rotor JLA-10.500). The pellet (P2) was resuspended with Mannitol Buffer 1:1 and frozen at −80° C. The supernatant (S2) was centrifuged in 100 ml Beckman polypropylene centrifugal tubes at 48000×g for 50 minutes at 4° C. (Beckman Avanti J-20 XP; rotor JA-18). The supernatant (S3) was discarded and the pellet (P3) was resuspended with 1:1 Mannitol Buffer. The P2 and P3 protein concentration was determined with the BIORAD Standard assay method with bovine serum albumin as standard and measured on the NANO-Drop 1000. The membrane suspension was aliquots (500 μl per tube) and stored at −80° C. until required.
Membrane homogenates were resuspended and polytronised (Polytron PT1200E Kinematica AG) in Potassium Phosphate 10 mM, KCl 100 mM binding buffer at pH 7.4 to a final assay concentration determined with a previous experiment.
Assays were incubated to equilibrium for 1 hour at 4° C. and then, membranes were filtered onto unifilter (96-well white microplate with bonded GF/C filters preincubated 20-50 minutes in 0.3% Polyethylenimine) with a Filtermate 196 harvester (Packard BioScience) and washed 4 times with cold Potassium Phosphate 10 mM pH 7.4, KCl 100 mM binding buffer. After anhydrousing, filter-retained radioactivity was detected by liquid scintillation counting. Ki values were calculated using Excel-Fit (Microsoft) and are the means of two determinations.

[2] = target: human GABAA α1β3γ2 receptor (Homo sapiens (Human), UniProt P14867+P18507); assay: Radioligand binding assay, competition for [3H]Flumazenil, γ2-containing GABAA subtypes; details: for γ2/γ1 Selectivity Ratio: Ki α1β3γ2 (nM)/Ki α2β2γ1 (nM); for LogSel: Log[Ki α1β3γ2 (nM)/Ki α2β2γ1 (nM)]
Procedure: The affinity of compounds at GABAA γ2 subunit-containing receptors was measured by competition for [^3H]Flumazenil (81.1 Ci/mmol; Roche) binding to HEK293F cells expressing human (transiently transfected) receptors of composition α1β3γ2.
Harvested pellets from HEK293F cells expressing the different GABAA γ2 receptor subtypes were resuspended in Mannitol Buffer pH 7,2-7,4 and processed as described above for the cells expressing the GABAA γ1 subunit-containing receptors.
Assays were incubated to equilibrium for 1 hour at 4° C. and harvested onto GF/C uni-filters (Packard) by filtration using a Packard harvester and washing with ice-cold wash buffer (50 mM Tris; pH 7.5). After anhydrousing, filter-retained radioactivity was detected by liquid scintillation counting. Ki values were calculated using Excel-Fit (Microsoft) and are the means of two determinations.

[3] = target: h-GABA-A α2β2γ1 (Homo sapiens (Human), UniProt P47869+Q8N1C3); assay: Two-electrode voltage clamp electrophysiology in Xenopus oocytes expressing GABAA receptors; format: cell-based; details: for Efficacy (GABA) %: % modulation of GABA EC20 = 100*(Fold increase−1), compound at about 30-fold its Ki α2β2γ1; for Fold increase h-GABA-A α2β2γ1 oocyte @ 30-fold Ki: Xenopus oocytes, GABA EC20, compound at about 30-fold its Ki α2β2γ1
Procedure: Xenopus Oocytes Preparation Xenopus laevis oocytes at maturation stages V-VI were used for the expression of cloned mRNA encoding GABAA receptor subunits. Oocytes ready for RNA micro-injection were bought from Ecocyte, Castrop-Rauxel, Germany and stored in modified Barth's medium (composition in mM: NaCl 88, KCl 1, NaHCO3 2.4, HEPES 10, MgSO4 0.82, CaNO3 0.33, CaCl2 0.33, pH=7.5) at 20° C. until the experiment.
Oocytes were plated in 96-well plates for microinjection using the Roboinject automated instrument (MultiChannelSystems, Reutlingen, Germany). Approximately 50 nL of an aqueous solution containing the RNA transcripts for the subunits of the desired GABAA receptor subtype was injected into each oocyte. […] Oocytes were kept in modified Barth's medium (composition in mM: NaCl 88, KCl 1, NaHCO3 […], HEPES 10, MgSO4 0.82, CaNO3 0.33, CaCl2 0.33, pH=7.5) at 20° C. until the experiment.
Electrophysiological experiments were performed using the Roboocyte instrument (MultiChannelSystems, Reutlingen, Germany) on days 3 to 5 after the micro-injection of mRNA. During the experiment the oocytes were constantly superfused by a solution containing (in mM) NaCl 90, KCl 1, HEPES 5, MgCl2 1, CaCl2 1 (pH 7.4). Oocytes were impaled by two glass microelectrodes (resistance: 0.5-0.8 MQ) which were filled with a solution containing KCl 1M+K-acetate 1.5 M and voltage-clamped to −80 mV. The recordings were performed at room temperature using the Roboocyte two-electrode voltage clamp system (Multichannelsystem). After an initial equilibration period of 1.5 min GABA was added for 1.5 min at a concentration evoking approximately 20% of a maximal current response (EC20). After another rest interval of 2.5 min GABA was again added evoking a response of similar amplitude and shape. […] Current traces were recorded at a digitization rate of 10 Hz during and shortly before and after the GABA application.
Each compound and concentration was tested on at least 3 oocytes. Different oocytes were used for different compound concentrations.
For the analysis, the digitized current traces of the first and second GABA response were superimposed and, if necessary, rescaled to equal maximal amplitudes. The ratio between the two responses during the time interval of test compound application was calculated point by point. The extremum of the resulting “ratio trace” was taken as the efficacy (“Fold increase”) of the compound expressed as “% modulation of GABA EC20” (100*(Fold increase−1)).

[4] = Ki h-GABAA α2β2γ1, membranes of HEK293F cells, [3H]RO7239181 20-30 nM, Table 1
[5] = Ki h-GABAA α2β2γ1, membranes of HEK293F cells, [3H]RO7239181 20-30 nM, Table 2

Row | Compound | Ki [1, 4] [nM] | Ki [1, 5] [nM] | Ki [2] [nM] | γ2/γ1 Selectivity Ratio ([2]; Table 1) | LogSel ([2]; Table 1) | Efficacy (GABA) % [3] [%] | Fold increase h-GABA-A α2β2γ1 oocyte @ 30-fold Ki [3] | Ki ([1]; Ki h-GABAA α2β2γ1, Table 3, reference compounds and examples) [nM] | γ2/γ1 Selectivity Ratio ([2]; Table 3) | LogSel ([2]; Table 3) | Ki ([2]; read-out: Ki h-GABAA α1β3γ2, Table 3, reference compounds and examples) [nM]
1 | Cc1nnc2n1-c1sc3c(c1C(c1c(F)cccc1F)=N[C@H]2C)CCCCC3O (mixture of isomers) [Example 9, (7S,16RS)-9-(2,6-difluorophenyl)-3,7-dimethyl-18-thia-2,4,5,8-tetrazatetracyclo[8.8.0.02,6.011,17]octadeca-1(10),3,5,8,11(17)-pentaen-16-ol] | 14.3 | 14.3 | 1130 | 79.4 | 1.90 | 96 | 1.96 | – | – | – | –
2 | Cc1nnc2n1-c1sc3c(c1C(c1c(F)cccc1F)=N[C@H]2C)CCCC(O)C3 (mixture of isomers) [Example 13, (7S,15RS)-9-(2,6-difluorophenyl)-3,7-dimethyl-18-thia-2,4,5,8-tetrazatetracyclo[8.8.0.02,6.011,17]octadeca-1(10),3,5,8,11(17)-pentaen-15-ol] | 15.1 | 15.1 | 1190 | 78.9 | 1.90 | 80 | 1.80 | – | – | – | –
3 | Cc1nnc2n1-c1sc3c(c1C(c1c(F)cccc1F)=N[C@H]2C)CCCC[C@H]3F (single isomer, unassigned) [Example 11] | 17.4 | 17.5 | 825 | 47.3 | 1.67 | 88 | 1.88 | – | – | – | –
4 | Cc1nnc2n1-c1sc3c(c1C(c1c(F)cccc1F)=N[C@H]2C)CCCC[C@@H]3F (single isomer, unassigned) [Example 12] | 33.7 | 33.7 | 1010 | 29.9 | 1.48 | 185 | 2.85 | – | – | – | –
5 | Cc1nnc2n1-c1sc3c(c1C(c1c(F)cccc1F)=N[C@H]2C)CC[C@H](F)CC3 (single isomer, unassigned) [Example 14] | 38.4 | 38.4 | 11000 | 286.6 | 2.46 | 181 | 2.81 | – | – | – | –
6 | Cc1nnc2n1-c1sc3c(c1C(c1c(F)cccc1F)=N[C@H]2C)CC[C@@H](F)CC3 (single isomer, unassigned) [Example 15] | 42.8 | 42.8 | 3530 | 82.5 | 1.92 | 144 | 2.44 | – | – | – | –
7 | Cc1nnc2n1-c1sc3c(c1C(c1c(F)cccc1F)=N[C@H]2C)CCC[C@H](F)C3 (single isomer, unassigned) [Example 17] | 4.31 | 4.3 | 584 | 135.6 | 2.13 | 135 | 2.35 | – | – | – | –
8 | Cc1nnc2n1-c1sc3c(c1C(c1c(F)cccc1F)=N[C@H]2C)CCC(F)C(F)C3 (single isomer, unassigned) [Example 34] | 31.7 | 31.7 | 10800 | 340.3 | 2.53 | 134 | 2.34 | – | – | – | –
9 | Cc1nnc2n1-c1sc3c(c1C(c1c(F)cccc1F)=NC2)CCCCC3 [Example 1, 9-(2,6-difluorophenyl)-3-methyl-18-thia-2,4,5,8-tetrazatetracyclo[8.8.0.02,6.011,17]octadeca-1(10),3,5,8,11(17)-pentaene] | 7.5 | 7.5 | 374 | 49.6 | 1.70 | 64 | 1.64 | 7.5 | 49.6 | 1.7 | 374
10 | Cc1nnc2n1-c1sc3c(c1C(c1c(F)cccc1F)=N[C@H]2C)CCCCC3 [Example 2, (7S)-9-(2,6-difluorophenyl)-3,7-dimethyl-18-thia-2,4,5,8-tetrazatetracyclo[8.8.0.02,6.011,17]octadeca-1(10),3,5,8,11(17)-pentaene] | 7.4 | 7.4 | 994 | 133.9 | 2.13 | 66 | 1.66 | – | – | – | –
11 | C[C@@H]1N=C(c2c(F)cccc2F)c2c(sc3c2CCCCC3)-n2c(C3CC3)nnc21 [Example 3, (7S)-3-cyclopropyl-9-(2,6-difluorophenyl)-7-methyl-18-thia-2,4,5,8-tetrazatetracyclo[8.8.0.02,6.011,17]octadeca-1(10),3,5,8,11(17)-pentaene] | 26.6 | 26.7 | 1360 | 51.0 | 1.71 | 91 | 1.91 | – | – | – | –
